In data set [1] the test system is EGFR. In words: EGFR expression and phosphorylation in xenograft tumors (immunohistochemistry, Western blot). It counts as in vivo, athymic (nude) mice. The method, then: FIG. 6B illustrates expression of EGFR and Akt. Tissue sections were obtained from human pancreatic cancer tumors growing in nude mice as described in FIG. 5, and stained for pEGFR and pAkt as described in Materials and Methods section (below). Middle, EGFR and Akt expression of pancreatic tumors from same crocetinic acid-treated and untreated control animals using Western Blot as described in FIG. 4B, was determined. Phophorylated (p-EGFR) and total protein of EGFR and phophorylated Akt and total Akt expressed as ratio between them normalized with b-actin was shown (bottom);
The immuno-Western blot analyses were the same as described earlier by Banerjee et al. (Reference 26). Briefly, MIA-PaCa-2 and BxPC-3 cells following treatment with or without crocetin and tumor samples were homogenized. […] Protein concentration was measured by using the Comassie blue reagent assay (Pierce, Rockford, Ill.). […] The antigen-antibody reactions were detected with HRP-conjugated anti-rabbit or anti-mouse IgG for one hour in room temperature. Immunoreactions were visualized by the ECL ([…]) chemiluminescence reagent kit (Pierce, Rockford, Ill.) and relative expression of proteins were calculated by densitometric analyses using ID image Analysis Software version 3.6 (Eastman Kodak Company, Rochester, N.Y.). […]
In general terms: A western blot detects proteins with antibodies after separation by electrophoresis.

The conditions of data set [2]: in vivo; cited from earlier work.
The test system of data set [3] is MIA-PaCa-2 xenograft tumor. Kind of data set: Apoptosis in xenograft tumors (cleaved caspase 3, TUNEL, Bax/Bcl-2). It is filed as in vivo, athymic (nude) mice. To be noted: xenograft tumors. As for the experimental part: FIG. 6C illustrates apoptosis. Top, tumor tissues were processed for Cleaved Caspase 3 immunohistochemistry. […] Caspase 3, Bax and Bcl-2 (middle) expressions of pancreatic tumors from same crocetinic acid-treated and control animals using Western Blot were carried out and Bax/Bcl-2 ratio was also determined (bottom). Columns, mean from six different animals; bars, SD (B and C). *, P<0.05; **, P<0.001 versus untreated control (Student's t test);
To explore whether the regression of tumor growth by crocetin is due to inhibition of proliferation, apoptotic cell death or both, we first evaluated PCNA (proliferating cell nuclear antigen) expression and then EGFR expression in tumors using histochemical analysis. […] Next, apoptosis by TUNEL assay was investigated in the tumors of mice treated with or without crocetin.

As to `CC(/C=C/C=C(\C)C(=O)O)=C\C=C\C=C(C)\C=C\C=C(/C)C(=O)O` [crocetin], the “EGFR activity (ratio of phosphorylated and unphosphorylated form) in tumors” value in data set [1] is given as “significantly impaired”. Also, the “EGFR expression and phosphorylation in tumors” value in data set [1] (versus untreated) is recorded as “significantly reduced”. The median lethal dose (LD50) – broadly, the dose expected to kill half of the subjects tested – in data set [2] is 2000 mg/kg. For the same compound, the “ratio of Bax/Bcl-2 in pancreatic tumors” value in data set [3] (Western blot) is on record as “significantly increased”. Besides, the “TUNEL assay positive cells in tumors” value in data set [3] (versus untreated) is given as “elevated markedly”.

These data come from US9889105B2, “In vivo method for treating, inhibiting, and/or prophylaxis of cancer, such as pancreatic cancer” (U.S. Department of Veterans Affairs, priority 2010, dated 2018).
